Source: US20090048112A1, “Novel Herbicides” (SYNGENTA LIMITED, priority 2005, published 2009)

Legend:
[1] = system: Monocotyledonous and dicotyledonous test plants; assay: Example B1: herbicidal action prior to emergence (pre-emergence), 500 g/ha; type: in vivo; conditions: 13 days after application, 0 = no damage, 100 = plants completely dead; for ALOMY herbicidal effect (visual assessment, percentage scale): Alopecurus myosuroides (slender foxtail); for AMARE herbicidal effect (visual assessment, percentage scale): Amaranthus retroflexus (redroot pigweed); for ECHCG herbicidal effect (visual assessment, percentage scale): Echinochloa crus-galli (barnyard grass); for STEME herbicidal effect (visual assessment, percentage scale): Stellaria media (chickweed)
Outline: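 Pre-emergence test with monocot and dicot species sown in standard compost. Compound was track-sprayed onto the soil surface at 500 g/ha in 50% acetone/water with 0.5% Tween 20 (1000 l/ha equivalent). Damage was scored visually 13 days after application on a 0–100% scale, where 100 means plants completely dead.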

[2] = system: Alopecurus myosuroides (slender foxtail); assay: Example B2: herbicidal action post emergence, 500 g/ha; type: in vivo; conditions: applied to the foliage, 13 days after application, 0 is no damage to plants, 100 is plants completely dead
Description: (§1) Monocotyledonous and dicotyledonous test plants were sown in seed trays in standard compost and were grown for eight days. The trays were watered twice daily or as required. The chemicals were applied by track sprayer to the foliage. The application was carried out with an aqueous suspension of the test substances, prepared as a formulation of 50% acetone in water with 0.5% Tween 20™ (CAS RN 9005-64-5), to achieve a field equivalent of 1000 l/ha. The application rate of the test substances was 500 g/ha. A visual assessment of the herbicidal effect was made at 13 days after application. The following percentage scale was used for assessment: 0, 5, 10, 20, 30, 40, 50, 60, 70, 80, 90, 95, 100 (where O is no damage to plants and 100 is plants are completely dead).

[3] = system: Amaranthus retroflexus (redroot pigweed); assay: as above; type: in vivo; conditions: applied to the foliage, 13 days after application, 0 is no damage to plants, 100 is plants completely dead
Description: as §1

[4] = system: Echinochloa crus-galli (barnyard grass); assay: as above; type: in vivo; conditions: applied to the foliage, 13 days after application, 0 is no damage to plants, 100 is plants completely dead
Description: as §1

[5] = system: Stellaria media (chickweed); assay: as above; type: in vivo; conditions: applied to the foliage, 13 days after application, 0 is no damage to plants, 100 is plants completely dead
Description: as §1

[6] = system: Monocotyledonous and dicotyledonous test plants; assay: Example B3: herbicidal action prior to emergence (pre-emergence), 96-cell seed trays, 1000 g/ha; type: in vivo; parameters: key: 0 is no damage to plant; 5 is total damage to plant; conditions: 9 days after application
Outline: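 Soil-surface pre-emergence spray at 1000 g/ha in water with 10% DMSO (1000 l/ha equivalent), applied one day after sowing in sterilised soil. Plants kept in a climatic chamber (24/19 °C day/night, 13 h light, 50-60% humidity); damage scored visually 0-5 at 9 days after application.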

Compound | melting point [°C] | ALOMY herbicidal effect (visual assessment, percentage scale) [1] [%] | AMARE herbicidal effect (visual assessment, percentage scale) [1] [%] | ECHCG herbicidal effect (visual assessment, percentage scale) [1] [%] | STEME herbicidal effect (visual assessment, percentage scale) [1] [%] | ALOMY, visual assessment of the herbicidal effect [2] [%] | AMARE, visual assessment of the herbicidal effect [3] [%] | ECHCG, visual assessment of the herbicidal effect [4] [%] | STEME, visual assessment of the herbicidal effect [5] [%] | AGSTE herbicidal effect (visual assessment, scale 0-5) ([6]; Agrostis tenius (Colonial bentgrass)) | AMARE herbicidal effect (visual assessment, scale 0-5) ([6]; Amaranthus retroflexus (redroot pigweed)) | DIGSA herbicidal effect (visual assessment, scale 0-5) ([6]; Digitaria sanguinalis (hairy finger-grass)) | POATR herbicidal effect (visual assessment, scale 0-5) ([6]; Poa trivialis (rough blue grass)) | SETIT herbicidal effect (visual assessment, scale 0-5) ([6]; Setaria italica (foxtail millet))
Cn1nc(C(F)(F)F)c(C(F)(F)S(=O)(=O)c2ncc(Br)s2)c1Cl [Compound No. 1.033, 5-bromo-2-[(5-chloro-1-methyl-3-trifluoromethyl-1H-pyrazol-4-yl)-difluoro-methanesulfonyl]-thiazole] | 186 to 188 |  |  |  |  |  |  |  |  |  |  |  |  | 
CC(c1c(C(F)(F)F)nn(C)c1OCC(F)(F)F)S(=O)(=O)c1ncc(Cl)s1 (racemic) [1.096] |  | 95 | 95 | 95 | 95 | 90 | 80 | 80 | 70 | 5 | 5 | 5 | 5 | 5
Cn1nc(C(F)(F)F)c(CSc2ncc(Br)s2)c1Cl [Compound No. 1.004, 5-bromo-2-(5-chloro-1-methyl-3-trifluoromethyl-1H-pyrazol-4-ylmethylsulfanyl)-thiazole] |  | 95 | 95 | 95 | 60 | 80 | 70 | 90 | 60 |  |  |  |  | 
Cn1nc(C(F)(F)F)c(CSc2ncc(Cl)s2)c1OCC(F)(F)F [Compound No. 1.013] |  | 95 | 95 | 80 | 95 | 60 | 60 | 50 | 80 |  |  |  |  | 
COCCOc1c(CS(=O)(=O)c2ncc(Cl)s2)c(C(F)(F)F)nn1C [1.052] |  | 80 | 100 | 95 | 90 | 80 | 50 | 70 | 10 |  |  |  |  | 
Cn1nc(C(F)(F)F)c(C(Cl)S(=O)(=O)c2ncc(Br)s2)c1Cl (stereo not drawn) [Compound No. 1.030, 5-bromo-2-[chloro-(5-chloro-1-methyl-3-trifluoromethyl-1H-pyrazol-4-yl)-methanesulfonyl]-thiazole] | 78 to 79.5 |  |  |  |  |  |  |  |  |  |  |  |  | 
Cn1nc(C(F)(F)F)c(CSc2ncc([N+](=O)[O-])s2)c1OCC(F)(F)F [Compound No. 1.061] |  | 80 | 100 | 95 | 95 | 40 | 40 | 80 | 40 |  |  |  |  | 
CCOc1c(CS(=O)(=O)c2ncc(Br)s2)c(C(F)(F)F)nn1C [1.023] |  | 50 | 100 | 90 | 30 | 70 | 80 | 80 | 20 |  |  |  |  | 
Cn1nc(C(F)(F)F)c(CSc2ncc(Cl)s2)c1OC(F)F [Compound No. 1.056] |  | 90 | 95 | 95 | 90 | 95 | 70 | 70 | 80 |  |  |  |  | 
CCOc1c(C[S+]([O-])c2ncc(Br)s2)c(C(F)(F)F)nn1C (racemic) [1.022] |  | 95 | 100 | 95 | 90 | 60 | 70 | 80 | 80 |  |  |  |  | 
COCCOc1c(C[S+]([O-])c2ncc(Cl)s2)c(C(F)(F)F)nn1C (racemic) [1.051] |  | 80 | 100 | 70 | 100 | 70 | 70 | 80 | 70 |  |  |  |  | 
Cn1nc(C(F)(F)F)c(CSc2ncc(C(N)=O)s2)c1OCC(F)(F)F [1.121, 2-[1-methyl-5-(2,2,2-trifluoro-ethoxy)-3-trifluoromethyl-1H-pyrazol-4-ylmethylsulfanyl]-thiazole-5-carboxylic acid amide] | 118 to 120 |  |  |  |  |  |  |  |  |  |  |  |  | 
Cn1nc(C(F)(F)F)c(CSc2ncc(Br)s2)c1OCC(F)(F)F [Compound No. 1.001, 5-bromo-2-[1-methyl-5-(2,2,2-trifluoroethoxy)-3-trifluoromethyl-1H-pyrazol-4-ylmethylsulfanyl]-thiazole] |  | 90 | 90 | 95 | 60 | 80 | 80 | 60 | 80 |  |  |  |  | 
Cn1nc(C(F)(F)F)c(C[S+]([O-])c2ncc(Cl)s2)c1OCC(F)(F)F (racemic) [1.014] |  | 100 | 100 | 95 | 95 | 70 | 70 | 60 | 80 |  |  |  |  | 
